In patent US4866044A, “Solubilized composition of poorly-soluble pharmaceutical product” (Takeda Chemical Industries, Ltd., priority 1985, dated 1989):

Key:
physchem = details: water
[1] = pH 6

Compound	solubility (physchem) [mg/mL]	redissolubility [1]
CCCCCCCCCCCCCCCCCCNC(=O)OCC(COP(=O)([O-])OCC[n+]1ccsc1)OC (centres unmarked) [Compound [1], 3-(n-Octadecylcarbamoyloxy)-2-methoxypropyl 2-thiazolioethyl phosphate]	~100	–
alanine	–	O (key: O: dissolved within one minute; Δ: dissolved within one to three minutes)
